The subject of one assay is Mouse astrocyte cells. In words: CXCL1 and IL-6 ELISA of astrocyte culture media after RAC treatment. It counts as cell-based. The protocol: To stimulate astrocytes into a reactive state found in aging and neurodegenerative diseases per previous publications (Liddelow et al., 2017; Barbar et al., 2020), a combination of the cytokines TNF-α and IL-1α, and complement factor C1q, were added at 30 ng/mL, 3 ng/mL, and 400 ng/mL, respectively, into astrocyte culture media to make 'reactive astrocyte cocktail' (RAC) media. […] Bachem, Cat. #4029110), BAY-11-7082 (50 μM; Abcam, Cat. #ab141228) or equal volume of vehicle (0.01% DMSO in PBS) (hereafter referred to as 'RAC treatment'). Cells in Groups 3-6 were treated with RAC for 24 hours, with or without the test compounds (n=4 per group). • Group 1: Control [CON] • Group 2: CON+BGE-105 (50 nM) [CON+105] • Group 3: Reactive control treated with RAC only [RAC] • Group 4: RAC+BGE-105 (50 nM) [RAC+105] • Group 5: RAC+Pyrm-Apelin-13 (50 nM) • Group 6: RAC+BAY-11-7082 (NF-κB inhibitor; 50 μM) [RAC+BAY] Media from each tested cell group was collected for cytokine release analysis. Cells were lysed for RNA collection and RT-PCR was performed to synthesis cDNA under standard conditions. Next, transcriptome analysis was performed to determine the expression level of astrocyte genes or astrocyte responsive genes. Changes of expression was normalized to β-actin (FIGS. 8 and 9). Exemplary biomarkers include CCL2, CXCL10, CXCL11, CXCL1, CXCL2, CXCL3, CXCL8, EDN1, […]3, CIS, CTRL, C3, CFB, VEGF, and IL-6. For analysis of cytokines secreted by astrocytes, culture media was collected after RAC treatment, centrifuged at 10,000 RPM for 5 minutes to pellet any debris, and supernatant was transferred to a new tube and assayed immediately or frozen at -80° C. For individual analysis of CXCL1 or IL-6 concentrations, cell culture supernatant was diluted 1:50 or 1:10, respectively, and assessed using mouse-specific ELISA kits per manufacturer's protocols (R&D Systems, Cat. #DY453 and #DY406).
Background: In an ELISA, binding on a coated surface is turned into a signal by an enzyme label.

The test system of a further assay is wildtype motor neurons. In words: Neurons exposed to SOD1^G93A astrocyte-conditioned media or co-cultured with SOD1^G93A astrocytes. It is filed as cell-based, mouse. The protocol:
This study conducts co-culture experiments using SOD1^G93A astrocytes and wildtype motor neurons to determine effects of apelin signaling on rescue of neuronal survival and function. Co-culture experiments are conducted by measuring viability, neuronal homeostasis, and morphological endpoints.
Neurons are isolated from mouse spinal cords as previously described in Example 12 above. Non-astrocytic flowthrough following column-based cell isolation (MACS) are collected and cultured in serum-free, neuron-selective media in 12- or 96-well plates for at least 14 days before experimentation. For specific selection of spinal cord motor neurons, wildtype C57BL/6J mouse PNDO or adult spinal cords are processed using published methods (Beaudet, 2015).
Neurons are cultured for at least 14 days before the start of experimentation. First, ACM from wildtype or SOD astrocytes exposed to 250 nM BGE-105 (or vehicle) are added to neurons seeded in 96 well plates for 6, 12, 24, or 48 hours followed by analysis of neuronal survival using the ApoTox-Glo Triplex kit (Promega) to determine optimal exposure time. […]

The next assay has as its system Mouse primary astrocytes. In words: Proteome Profiler Mouse Cytokine Array of astrocyte culture supernatant. It is filed as cell-based. The settings on record: RAC+BGE-105 [50 nM and 250 nM] versus RAC. The protocol:
To stimulate astrocytes into a reactive state found in aging and neurodegenerative diseases per previous publications (Liddelow et al., 2017; Barbar et al., 2020), a combination of the cytokines TNF-α and IL-1α, and complement factor C1q, were added at 30 ng/mL, 3 ng/mL, and 400 ng/mL, respectively, into astrocyte culture media to make ‘reactive astrocyte cocktail’ (RAC) media. […] Bachem, Cat. #4029110), BAY-11-7082 (50 μM; Abcam, Cat. #ab141228) or equal volume of vehicle (0.01% DMSO in PBS) (hereafter referred to as ‘RAC treatment’). […] To assess a panel of cytokines and chemokines, cell culture supernatant was diluted 1:10 and assayed using the Proteome Profiler Mouse Cytokine Array Kit, Panel A (R&D Systems, Cat. #ARY006) per manufacturer's protocol. Dot blots were analyzed in Fiji (Schindelin et al. 2012. Fiji: an open-source platform for biological-image analysis. Nat Methods 9, 676-682) and transcription factor enrichment was performed with Enrichr (Chen, et al. 2013. Enrichr: interactive and collaborative HTML5 gene list enrichment analysis tool. BMC Bioinformatics 14, 128).

The structures appear in SMILES notation.

In the case of `COc1cccc(OC)c1-n1c(NS(=O)(=O)[C@@H](C)[C@H](C)c2ncc(C)cn2)nnc1-c1cncc(C)c1` [BGE-105, (2S,3R)—N-(4-(2,6-dimethoxyphenyl)-5-(5-methyl-3-pyridinyl)-4H-1,2,4-triazol-3-yl)-3-(5-methyl-2-pyrimidinyl)-2-butanesulfonamide], in the assay on Mouse astrocyte cells (CON+105 (50 nM) versus CON), the “concentration of CXCL1 and IL-6 in media of control astrocytes” value was “no or minimal impacts”. Besides, the “astrocyte release of CXCL1 (FIG. 9)” value in the assay on Mouse astrocyte cells (RAC+105, BGE-105 50 nM, versus RAC, p=0.0032) is recorded as “greatly reduced”. Moreover, in the assay with Mouse astrocyte cells (RAC+BGE-105 50 nM), the “CXCL1 concentration/release (FIG. 12)” value was “about 40000 pg/ml” and the “IL-6 concentration/release (FIG. 12)” value lay in the range of 5000 to 10000 pg/mL. In addition, the “astrocytic release of IL-6 (FIG. 9)” value with Mouse astrocyte cells (RAC+BGE-105, 50 nM, versus RAC, p=0.0008) was “reduced”. Moreover, the “neuron cell death caused by SOD1^G93A ACM” value with wildtype motor neurons (pretreatment of SOD1^G93A astrocytes with 250 nM BGE-105) is on record as “attenuated”. The “synaptic protein expression and neuronal structural integrity” value in the assay on wildtype motor neurons (wildtype neurons cultured with SOD1^G93A astrocytes, 250 nM BGE-105) is “preserves synaptic protein expression and neuronal structural integrity”. Further, the “cytokine and chemokine release (array panel)” value in the assay on Mouse primary astrocytes is “significantly reduced”.

The record behind these values is US20240041878A1, “APELIN RECEPTOR MODULATORS FOR TREATMENT OF A DISORDER OR DISEASE ASSOCIATED WITH BBB PERMEABILITY” (BioAge Labs, Inc., priority 2022, published 2024).
